Results: patent US10681909B2, “Herbicidal triazoles” (FMC Corporation, priority 2014, dated 2020)

Experiments:
[1] = system: field violet; test: Test D preemergence; type: in vivo, Viola arvensis; settings: for Plant response rating (0 to 100), Field Violet: 16 g ai/ha, 0 is no effect, 100 is complete control; for Plant response rating: Field Violet: scale 0 to 100
Excerpt: (§1) Seeds of plant species selected from bluegrass (annual bluegrass, Poa annua), blackgrass (Alopecurus myosuroides), canarygrass (Phalaris minor), chickweed (common chickweed, Stellaria media), galium (catchweed bedstraw, Galium aparine), bromegrass, down (downy bromegrass, Bromus tectorum), Russian thistle (Salsola kali), field poppy (Papaver rhoeas), field violet (Viola arvensis), foxtail, green (green foxtail, Setaria viridis), deadnettle (henbit deadnettle, Lamium amplexicaule), ryegrass, Ital. (Italian ryegrass, Lolium multiflorum), kochia (Kochia scoparia), lambsquarters (Chenopodium album), oilseed rape (Brassica napus), pigweed (Amaranthus retroflexus), chamomile (scentless chamomile, Matricaria inodora), speedwell (bird's-eye speedwell, Veronica persica), barley, spring (spring barley, Hordeum vulgare), wheat, spring (spring wheat, Triticum aestivum), buckwheat, wild (wild buckwheat, Polygonum convolvulus), wild mustard (Sinapis arvensis), oat, wild (wild oat, Avena fatua), radish, wild (wild radish, Raphanus raphanistrum), […]), barley, winter (winter barley, Hordeum vulgare), and wheat, winter (winter wheat, Triticum aestivum) were planted into a silt loam soil and treated preemergence with test chemicals formulated in a non-phytotoxic solvent mixture which included a surfactant. At the same time, these species were planted in pots containing Sunshine Redi-Earth® planting medium comprising spaghnum peat moss, vermiculite, starter nutrients and dolomitic limestone and treated with postemergence applications of the test chemicals formulated in the same manner. Plants ranged in height from 2 to 18 cm (1- to 4-leaf stage). Treated plants and controls were maintained in a controlled growth environment for 14 to 21 d after which time all species were compared to controls and visually evaluated. […] A dash (-) response means no test result.

[2] = system: Russian thistle; test: Test D postemergence; type: in vivo, Salsola kali; settings: scale 0 to 100
Excerpt: as §1

[3] = system: ryegrass, Ital.; test: Test D preemergence; type: in vivo, Lolium multiflorum; settings: for Plant response rating (0 to 100), Ryegrass, Ital.: 16 g ai/ha, 0 is no effect, 100 is complete control; for Plant response rating: Ryegrass, Ital.: scale 0 to 100
Excerpt: as §1

[4] = system: blackgrass; test: Test D postemergence; type: in vivo, Alopecurus myosuroides; settings: scale 0 to 100
Excerpt: as §1

[5] = system: speedwell; test: Test D preemergence; type: in vivo, Veronica persica; settings: for Plant response rating (0 to 100), Speedwell: 16 g ai/ha, 0 is no effect, 100 is complete control; for Plant response rating: Speedwell: scale 0 to 100
Excerpt: as §1

[6] = system: radish, wild; test: Test D postemergence; type: in vivo, Raphanus raphanistrum; settings: scale 0 to 100
Excerpt: as §1

[7] = system: ryegrass, Italian; test: Test A postemergence; type: in vivo, Lolium multiflorum; settings: 0 to 100 scale (0 no effect, 100 complete control), approx. 10 d
Procedure, shortened: (§2)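 Seeds sown in loam soil–sand blend received a directed preemergence soil spray of test chemical in non-phytotoxic solvent with surfactant; postemergence plants, 2 to 10 cm at one- to two-leaf stage, were sprayed with the same formulation. Injury visually rated versus untreated controls after ~10 d in greenhouse, 0–100 scale.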

[8] = system: bromegrass, down; test: Test D postemergence; type: in vivo, Bromus tectorum; settings: scale 0 to 100
Excerpt: as §1

[9] = system: oat, wild; test: Test D postemergence; type: in vivo, Avena fatua; settings: scale 0 to 100
Excerpt: as §1

[10] = system: windgrass; test: Test D preemergence; type: in vivo, Apera spica-venti; settings: for Plant response rating (0 to 100), Windgrass: 16 g ai/ha, 0 is no effect, 100 is complete control; for Plant response rating: Windgrass: scale 0 to 100
Excerpt: as §1

[11] = system: blackgrass; test: Test A postemergence; type: in vivo, Alopecurus myosuroides; settings: 0 to 100 scale (0 no effect, 100 complete control), approx. 10 d
Procedure, shortened: as §2

[12] = system: field poppy; test: Test D preemergence; type: in vivo, Papaver rhoeas; settings: for Plant response rating (0 to 100), Field Poppy: 16 g ai/ha, 0 is no effect, 100 is complete control; for Plant response rating: Field Poppy: scale 0 to 100
Excerpt: as §1

[13] = system: lambsquarters; test: Test C preemergence; type: in vivo, Chenopodium album; settings: for Plant response rating (scale of 0 to 100 where 0 is no effect and 100 is complete control): Lambsquarters, preemergence; for Lambsquarters plant response rating (0 to 100): Preemergence, visual rating after 13 to 15 d
Excerpt: (§3) Seeds of plant species selected from blackgrass (Alopecurus myosuroides), ryegrass, Italian (Italian ryegrass, Lolium multiflorum), wheat (winter wheat, Triticum aestivum), galium (catchweed bedstraw, Galium aparine), corn (Zea mays), crabgrass, large (large crabgrass, Digitaria sanguinalis), foxtail, giant, (giant foxtail, Setaria faberii), johnsongrass (Sorghum halepense), lambsquarters (Chenopodium album), morningglory (Ipomoea coccinea), nutsedge, yellow (yellow nutsedge, Cyperus esculentus), pigweed (Amaranthus retroflexus), ragweed (common ragweed, Ambrosia elatior), soybean (Glycine max), barnyardgrass (Echinochloa crus-galli), oilseed rape (Brassica napus), waterhemp (common waterhemp, Amaranthus rudis), and velvetleaf (Abutilon theophrasti) were planted into a blend of loam soil and sand and treated preemergence with test chemicals formulated in a non-phytotoxic solvent mixture which included a surfactant. At the same time, plants selected from these crop and weed species and also chickweed (common chickweed, Stellaria media), oat, wild (wild oat, Avena fatua), and kochia (Kochia scoparia), were planted in pots containing Sunshine Redi-Earth® planting medium comprising spaghnum peat moss, vermiculite, starter nutrients and dolomitic limestone and treated with postemergence applications of test chemicals formulated in the same manner. Plants ranged in height from 2 to 18 cm (1- to 4-leaf stage) for postemergence treatments. […] A dash (-) response means no test result.

[14] = system: blackgrass; test: Test C preemergence; type: in vivo, Alopecurus myosuroides; settings: for Plant response rating (scale of 0 to 100 where 0 is no effect and 100 is complete control): Blackgrass, preemergence; for Blackgrass plant response rating (0 to 100): Preemergence, visual rating after 13 to 15 d
Excerpt: as §3

FC(F)(F)COc1nc(-c2ccccc2)nn1Cc1ccnc(C(F)(F)F)c1 [Compound 24]
Plant response rating (0 to 100), Field Violet [1]: 0 | Plant response rating: Field Violet ([1]; 62 g ai/ha): 80 | Plant response rating: Field Violet ([1]; 125 g ai/ha): 100 | Plant response rating: Russian Thistle ([2]; 16 g ai/ha): 65 | Plant response rating: Russian Thistle ([2]; 31 g ai/ha): 75 | Plant response rating: Russian Thistle ([2]; 62 g ai/ha): 85 | Plant response rating: Russian Thistle ([2]; 125 g ai/ha): 85 | Plant response rating (0 to 100), Ryegrass, Ital. [3]: 40 | Plant response rating: Ryegrass, Ital. ([3]; 62 g ai/ha): 40 | Plant response rating: Ryegrass, Ital. ([3]; 125 g ai/ha): 45 | Plant response rating: Blackgrass ([4]; 16 g ai/ha): 25 | Plant response rating: Blackgrass ([4]; 31 g ai/ha): 35 | Plant response rating: Blackgrass ([4]; 62 g ai/ha): 45 | Plant response rating: Blackgrass ([4]; 125 g ai/ha): 65 | Plant response rating (0 to 100), Speedwell [5]: 80 | Plant response rating: Speedwell ([5]; 62 g ai/ha): 100 | Plant response rating: Speedwell ([5]; 125 g ai/ha): 100 | Plant response rating: Radish, Wild ([6]; 16 g ai/ha): 70 | Plant response rating: Radish, Wild ([6]; 31 g ai/ha): 95 | Plant response rating: Radish, Wild ([6]; 62 g ai/ha): 95 | Plant response rating: Radish, Wild ([6]; 125 g ai/ha): 95 | Plant response rating, Ryegrass, Italian ([7]; 125 g ai/ha): 30 | Plant response rating, Ryegrass, Italian ([7]; 500 g ai/ha): 60 | Plant response rating: Bromegrass, Down ([8]; 16 g ai/ha): 25 | Plant response rating: Bromegrass, Down ([8]; 31 g ai/ha): 40 | Plant response rating: Bromegrass, Down ([8]; 62 g ai/ha): 45 | Plant response rating: Bromegrass, Down ([8]; 125 g ai/ha): 50 | Plant response rating: Oat, Wild ([9]; 16 g ai/ha): 35 | Plant response rating: Oat, Wild ([9]; 31 g ai/ha): 45 | Plant response rating: Oat, Wild ([9]; 62 g ai/ha): 50 | Plant response rating: Oat, Wild ([9]; 125 g ai/ha): 55 | Plant response rating (0 to 100), Windgrass [10]: 0 | Plant response rating: Windgrass ([10]; 62 g ai/ha): 65 | Plant response rating: Windgrass ([10]; 125 g ai/ha): 100 | Plant response rating, Blackgrass ([11]; 125 g ai/ha): 40 | Plant response rating, Blackgrass ([11]; 500 g ai/ha): 60 | Plant response rating (0 to 100), Field Poppy [12]: 95 | Plant response rating: Field Poppy ([12]; 62 g ai/ha): 100 | Plant response rating: Field Poppy ([12]; 125 g ai/ha): 100 | Plant response rating (scale of 0 to 100 where 0 is no effect and 100 is complete control) ([13]; 125 g ai/ha): 85 | Plant response rating (scale of 0 to 100 where 0 is no effect and 100 is complete control) ([13]; 250 g ai/ha): 85 | Lambsquarters plant response rating (0 to 100) ([13]; 31 g ai/ha): 60 | Lambsquarters plant response rating (0 to 100) ([13]; 62 g ai/ha): 75 | Plant response rating (scale of 0 to 100 where 0 is no effect and 100 is complete control) ([14]; 125 g ai/ha): 90 | Plant response rating (scale of 0 to 100 where 0 is no effect and 100 is complete control) ([14]; 250 g ai/ha): 90 | Blackgrass plant response rating (0 to 100) ([14]; 31 g ai/ha): 10 | Blackgrass plant response rating (0 to 100) ([14]; 62 g ai/ha): 60

FC(F)(F)COc1nc(-c2ccc(Cl)cc2)nn1Cc1ccnc(C(F)(F)F)c1 [Compound 31]
Plant response rating (0 to 100), Field Violet [1]: 95 | Plant response rating: Field Violet ([1]; 62 g ai/ha): 100 | Plant response rating: Field Violet ([1]; 125 g ai/ha): 100 | Plant response rating: Russian Thistle ([2]; 16 g ai/ha): 70 | Plant response rating: Russian Thistle ([2]; 31 g ai/ha): 80 | Plant response rating: Russian Thistle ([2]; 62 g ai/ha): 85 | Plant response rating: Russian Thistle ([2]; 125 g ai/ha): 90 | Plant response rating (0 to 100), Ryegrass, Ital. [3]: 40 | Plant response rating: Ryegrass, Ital. ([3]; 62 g ai/ha): 50 | Plant response rating: Ryegrass, Ital. ([3]; 125 g ai/ha): 100 | Plant response rating: Blackgrass ([4]; 16 g ai/ha): 45 | Plant response rating: Blackgrass ([4]; 31 g ai/ha): 65 | Plant response rating: Blackgrass ([4]; 62 g ai/ha): 70 | Plant response rating: Blackgrass ([4]; 125 g ai/ha): 80 | Plant response rating (0 to 100), Speedwell [5]: 100 | Plant response rating: Speedwell ([5]; 62 g ai/ha): 100 | Plant response rating: Speedwell ([5]; 125 g ai/ha): 100 | Plant response rating: Radish, Wild ([6]; 16 g ai/ha): 95 | Plant response rating: Radish, Wild ([6]; 31 g ai/ha): 95 | Plant response rating: Radish, Wild ([6]; 62 g ai/ha): 95 | Plant response rating: Radish, Wild ([6]; 125 g ai/ha): 100 | Plant response rating, Ryegrass, Italian ([7]; 125 g ai/ha): 50 | Plant response rating, Ryegrass, Italian ([7]; 500 g ai/ha): 80 | Plant response rating: Bromegrass, Down ([8]; 16 g ai/ha): 25 | Plant response rating: Bromegrass, Down ([8]; 31 g ai/ha): 45 | Plant response rating: Bromegrass, Down ([8]; 62 g ai/ha): 50 | Plant response rating: Bromegrass, Down ([8]; 125 g ai/ha): 70 | Plant response rating: Oat, Wild ([9]; 16 g ai/ha): 35 | Plant response rating: Oat, Wild ([9]; 31 g ai/ha): 45 | Plant response rating: Oat, Wild ([9]; 62 g ai/ha): 70 | Plant response rating: Oat, Wild ([9]; 125 g ai/ha): 75 | Plant response rating (0 to 100), Windgrass [10]: 60 | Plant response rating: Windgrass ([10]; 62 g ai/ha): 100 | Plant response rating: Windgrass ([10]; 125 g ai/ha): 100 | Plant response rating, Blackgrass ([11]; 125 g ai/ha): 50 | Plant response rating, Blackgrass ([11]; 500 g ai/ha): 80 | Plant response rating (0 to 100), Field Poppy [12]: 95 | Plant response rating: Field Poppy ([12]; 62 g ai/ha): 100 | Plant response rating: Field Poppy ([12]; 125 g ai/ha): 100 | Plant response rating (scale of 0 to 100 where 0 is no effect and 100 is complete control) ([13]; 125 g ai/ha): 100 | Plant response rating (scale of 0 to 100 where 0 is no effect and 100 is complete control) ([13]; 250 g ai/ha): 98 | Lambsquarters plant response rating (0 to 100) ([13]; 31 g ai/ha): 90 | Lambsquarters plant response rating (0 to 100) ([13]; 62 g ai/ha): 100 | Plant response rating (scale of 0 to 100 where 0 is no effect and 100 is complete control) ([14]; 125 g ai/ha): 90 | Plant response rating (scale of 0 to 100 where 0 is no effect and 100 is complete control) ([14]; 250 g ai/ha): 95 | Blackgrass plant response rating (0 to 100) ([14]; 31 g ai/ha): 80 | Blackgrass plant response rating (0 to 100) ([14]; 62 g ai/ha): 70
